From the Kinase Knowledgebase extract (Sharma et al. 2016) come the findings set out here.

MAPK14, sequence (Q16539 whole entry, looked up): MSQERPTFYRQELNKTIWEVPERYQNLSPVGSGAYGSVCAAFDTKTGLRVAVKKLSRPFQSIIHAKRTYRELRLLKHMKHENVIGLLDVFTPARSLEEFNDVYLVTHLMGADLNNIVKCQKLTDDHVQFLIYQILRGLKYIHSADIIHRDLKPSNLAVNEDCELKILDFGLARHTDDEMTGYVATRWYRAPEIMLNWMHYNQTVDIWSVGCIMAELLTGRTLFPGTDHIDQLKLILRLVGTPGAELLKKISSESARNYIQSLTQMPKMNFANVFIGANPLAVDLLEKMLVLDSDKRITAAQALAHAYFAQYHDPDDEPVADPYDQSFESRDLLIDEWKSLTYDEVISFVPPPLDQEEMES

The first experiment deals with EGFR (UniProt P00533). As to the kind of experiment: EGFR Kinase Inhibition.
EGFR, sequence (P00533 whole entry, looked up): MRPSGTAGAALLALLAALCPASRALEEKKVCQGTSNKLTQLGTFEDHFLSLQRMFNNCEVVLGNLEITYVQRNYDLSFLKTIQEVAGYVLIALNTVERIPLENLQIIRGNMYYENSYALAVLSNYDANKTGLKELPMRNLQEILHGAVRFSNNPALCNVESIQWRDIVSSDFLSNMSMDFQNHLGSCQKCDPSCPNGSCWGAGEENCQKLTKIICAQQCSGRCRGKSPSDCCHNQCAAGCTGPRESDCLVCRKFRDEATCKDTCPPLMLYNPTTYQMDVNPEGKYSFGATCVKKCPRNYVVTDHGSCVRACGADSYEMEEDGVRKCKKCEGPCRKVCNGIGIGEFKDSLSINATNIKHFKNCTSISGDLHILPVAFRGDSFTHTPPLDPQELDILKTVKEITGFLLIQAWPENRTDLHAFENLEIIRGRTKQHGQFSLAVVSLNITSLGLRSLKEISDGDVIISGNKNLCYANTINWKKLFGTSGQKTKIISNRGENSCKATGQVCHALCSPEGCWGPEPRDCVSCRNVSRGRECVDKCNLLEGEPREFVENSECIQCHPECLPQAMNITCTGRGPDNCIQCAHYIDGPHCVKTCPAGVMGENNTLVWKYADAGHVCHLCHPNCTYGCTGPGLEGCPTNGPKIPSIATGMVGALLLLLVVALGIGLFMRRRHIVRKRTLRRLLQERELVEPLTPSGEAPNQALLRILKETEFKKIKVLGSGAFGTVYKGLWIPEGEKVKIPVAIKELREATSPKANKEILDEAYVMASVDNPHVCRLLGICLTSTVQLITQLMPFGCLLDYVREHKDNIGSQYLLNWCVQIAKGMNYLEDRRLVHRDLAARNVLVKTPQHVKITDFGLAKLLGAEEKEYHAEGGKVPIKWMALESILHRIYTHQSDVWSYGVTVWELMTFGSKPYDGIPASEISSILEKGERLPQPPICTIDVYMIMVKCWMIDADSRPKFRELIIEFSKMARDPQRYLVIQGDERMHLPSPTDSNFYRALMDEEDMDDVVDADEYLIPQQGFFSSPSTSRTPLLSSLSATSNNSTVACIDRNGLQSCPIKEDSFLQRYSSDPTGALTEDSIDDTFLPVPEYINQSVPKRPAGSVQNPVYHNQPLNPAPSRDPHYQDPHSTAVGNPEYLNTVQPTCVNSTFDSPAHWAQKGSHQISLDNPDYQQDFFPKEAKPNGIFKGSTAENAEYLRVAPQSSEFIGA
Conditions: not given
As for `CN1CCN(CCCCCNc2ncc3cc(-c4c(Cl)cccc4Cl)c(=O)n(C)c3n2)CC1`, the IC50 came out at 4500 nM. The compound `Cn1c(=O)c(-c2c(Cl)cccc2Cl)cc2cnc(NCCCCCC(=O)O)nc21` yielded an IC50 of 1000 nM. Regarding `C[C@@H](O)[C@@H](NC1=CC(=O)C(N[C@@H](C(=O)O)[C@@H](C)O)=CC1=O)C(=O)O`, the IC50 worked out at 44000 nM. As for `COc1ccc(Nc2ncc3cc(-c4c(Cl)cccc4Cl)c(=O)n(C)c3n2)cn1`, the IC50 came out at 1300 nM. As for `CC(C)[C@@H](NC1=C(CC2CCCC3CCCCC32)C(=O)C(O)=CC1=O)C(=O)O` (some centres not stated), the IC50 is more than 100000 nM.

Another experiment concerns the target MAPK14 (UniProt Q16539). As to the kind of experiment: p38-alpha Kinase Inhibition.
Conditions: not given
In the case of `O=C(c1ccc2[nH]c3c(c2c1)CCNC3)N1CCC(Cc2ccc(F)cc2)CC1`, the IC50 worked out at 243 nM.

With `COc1c(C(=O)N2CCC(Cc3ccc(F)cc3)CC2)ccc2[nH]c3c(c12)CCNC3`, the IC50 came to 242 nM. For the compound `O=C(c1ccc2[nH]c3c(c2c1)CCNC3)N1CCC(Cc2ccccc2)CC1`, the IC50 amounted to 330 nM.

Another experiment concerns the target PIK3CG (UniProt P48736). As to the kind of experiment: Inhibition of PIK3CG Kinase Activity.
Conditions: not given
`O=C1NC(=NCc2ccccc2)S/C1=C\c1ccc2c(c1)OCO2` displayed an IC50 of less than 1500 nM. On the same count and under the same terms, to `COC(=O)c1sccc1S(=O)(=O)N=C1NC(=O)/C(=C/c2ccc3ncccc3c2)S1` belongs less than 1000 nM. Compound `CON=C1NC(=O)/C(=C/c2ccc3c(c2)OCO3)S1` had a half-maximal inhibitory concentration (IC50) of less than 1000 nM. Regarding `CN=C1NC(=O)/C(=C/c2ccc3ncnc(N(C)C)c3c2)S1`, the IC50 was less than 1000 nM. The same measure, in the same setting: the same measure for `N#CN=C1NC(=O)/C(=C/c2ccc3nccnc3c2)S1`: less than 1000 nM.

In the next experiment the target is PIK3CG;PIK3CA (human) (UniProt P48736). As to the kind of experiment: Antiproliferation of PC3-MM2 Cells. Particulars: pc-3.
PIK3CG;PIK3CA (human), sequence (P48736 whole entry, looked up): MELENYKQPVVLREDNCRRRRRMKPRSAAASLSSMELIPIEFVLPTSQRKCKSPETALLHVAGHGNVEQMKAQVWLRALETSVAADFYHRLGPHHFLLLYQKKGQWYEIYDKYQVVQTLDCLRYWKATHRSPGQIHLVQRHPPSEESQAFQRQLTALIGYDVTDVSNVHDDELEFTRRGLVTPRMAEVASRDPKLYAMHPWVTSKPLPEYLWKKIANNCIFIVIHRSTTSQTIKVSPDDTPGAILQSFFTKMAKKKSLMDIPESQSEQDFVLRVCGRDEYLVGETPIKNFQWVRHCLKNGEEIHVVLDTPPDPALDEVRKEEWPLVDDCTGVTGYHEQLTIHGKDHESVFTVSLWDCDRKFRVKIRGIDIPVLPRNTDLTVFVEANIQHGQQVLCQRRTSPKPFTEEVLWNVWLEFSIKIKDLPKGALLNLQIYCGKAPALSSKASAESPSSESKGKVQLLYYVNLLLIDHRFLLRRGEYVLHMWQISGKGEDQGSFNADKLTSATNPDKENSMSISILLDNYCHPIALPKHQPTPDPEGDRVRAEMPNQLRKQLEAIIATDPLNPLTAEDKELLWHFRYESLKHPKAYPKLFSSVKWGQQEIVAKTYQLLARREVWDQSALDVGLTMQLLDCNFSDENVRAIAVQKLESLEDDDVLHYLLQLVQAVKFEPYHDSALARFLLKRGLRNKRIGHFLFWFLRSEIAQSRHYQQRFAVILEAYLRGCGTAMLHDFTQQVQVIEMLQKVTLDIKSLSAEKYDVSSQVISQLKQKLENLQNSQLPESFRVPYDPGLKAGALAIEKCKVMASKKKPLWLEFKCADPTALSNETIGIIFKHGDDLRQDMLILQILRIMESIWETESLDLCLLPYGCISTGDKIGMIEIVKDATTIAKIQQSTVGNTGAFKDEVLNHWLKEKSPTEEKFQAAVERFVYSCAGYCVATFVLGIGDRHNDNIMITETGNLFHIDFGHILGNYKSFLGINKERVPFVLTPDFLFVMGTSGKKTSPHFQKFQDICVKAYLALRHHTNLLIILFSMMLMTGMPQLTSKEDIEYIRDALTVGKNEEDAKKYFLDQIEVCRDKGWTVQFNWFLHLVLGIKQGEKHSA
In turn, `COc1ccc2c(c1)c(/C=C1\Oc3cc(O)cc(O)c3C1=O)c1n2CCNC1` came in with a half-maximal inhibitory concentration (IC50) of 2190 nM. `COc1ccc2c(c1)c(/C=C1\Oc3cc(O)ccc3C1=O)c1n2CCNC1` gave an IC50 of 1510 nM. `COc1ccc2c(c1)c(/C=C1\Oc3cc(O)cc(O)c3C1=O)c1n2CCOC1=O` displayed an IC50 of 5630 nM. Same read-out and setting: the same measure for `COc1ccc2c(c1)c(/C=C1\Oc3cc(O)cc(O)c3C1=O)c1n2CCN(C)C1=O`: 5050 nM; for `COc1ccc2c(c1)c(/C=C1\Oc3cc(O)cc(O)c3C1=O)c1n2CCOC1`: 1910 nM; for `COc1ccc2c(c1)c(/C=C1\Oc3cc(O)ccc3C1=O)c1n2CCC1`: 3400 nM.

`COc1ccc2c(c1)c(/C=C1\Oc3cc(O)cc(O)c3C1=O)c1n2CCN(C)C1` returned an IC50 of 1610 nM.

The next experiment addresses EGFR (UniProt P00533).
Test: not given
The following applies: cho.ir.
In the case of `Cc1cccc2c(C3=C(O)C(=O)C(c4c[nH]c5ccccc45)=C(O)C3=O)c[nH]c12`, the EC50 is 25000 nM.

With `C=CC(C)(C)c1[nH]c2ccccc2c1C1=C(O)C(=O)C(c2c[nH]c3c(CC=C(C)C)cccc23)=C(O)C1=O`, the EC50 came out at 15000 nM. For the compound `O=C1C(O)=C(c2c[nH]c3ccccc23)C(=O)C(O)=C1c1ccccc1`, the EC50 stood at 20000 nM.

The same experiment, now with this note: cho.ir, concentration not given here.
Take `O=C1C(O)=C(c2csc3ccccc23)C(=O)C(O)=C1c1ccccc1`: the activation was less than 5%. Consider `Cn1cc(C2=C(O)C(=O)C(c3ccccc3)=C(O)C2=O)c2ccccc21`, for which the activation was less than 5%. With `O=C1C(O)=C(c2coc3ccccc23)C(=O)C(O)=C1c1ccccc1`, the activation is less than 5%. Turning to `COc1ccc(C2=C(O)C(=O)C(c3ccccc3)=C(O)C2=O)cc1`, the activation was less than 5%.

The target in a further experiment is EGFR (UniProt P00533).
Test: not given
Conditions: not given
With `Nc1ccc2ncnc(Nc3cccc(Br)c3)c2n1`, the IC50 turned out to be 7.6 nM.

Take `Nc1cc2c(Nc3cccc(Br)c3)ncnc2cn1`: the IC50 amounted to 0.13 nM. `CNc1cc2c(Nc3cccc(Br)c3)ncnc2cn1` had an IC50 of 0.008 nM.

In turn, `COc1ccc2ncnc(Nc3cccc(Br)c3)c2c1` showed an IC50 of 30 nM. Still for that read-out and setting: the same measure for `COc1cc2c(Nc3cccc(Br)c3)ncnc2cn1`: 0.0026 nM.

For `CN(C)c1cc2c(Nc3cccc(Br)c3)ncnc2cn1`, the IC50 amounted to 0.006 nM.

Another experiment has as its target EGFR (mouse) (UniProt P00533).
Test: not given
Conditions: not given
Take `CC[C@@](C)(CCCC(C)(C)SCCNC(=O)c1ccc(N=[N+]=[N-])cc1)c1ccc2c3c(c[nH]c13)C[C@@H](CO)NC(=O)[C@H](C(C)C)N2C`: the ID50 is 4.4 nM.

Regarding `CCCCC[C@@H](Cc1ccc2c3c(c[nH]c13)C[C@@H](CO)NC(=O)[C@H](C(C)C)N2C)NC(=O)c1ccc(N=[N+]=[N-])cc1`, the ID50 amounted to 71 nM.

Consider `CC(C)[C@H]1C(=O)N[C@H](CO)Cc2c[nH]c3cccc(c23)N1C`, for which the ID50 was 1110 nM.

`CC(C)[C@H]1C(=O)N[C@H](CO)Cc2c[nH]c3c(CCNC(=O)c4ccc(N=[N+]=[N-])cc4)ccc(c23)N1C`: the ID50 turned out to be 1320 nM.

For `CCCCCCCCCCCC(=O)O[C@@H]1[C@@H](C)[C@@]2(O)[C@@H](C=C(CO)C[C@]3(O)C(=O)C(C)=C[C@@H]23)[C@@H]2C(C)(C)[C@]12OC(C)=O`, the ID50 turned out to be 1.33 nM.

Take `CCCCC[C@H](Cc1ccc2c3c(c[nH]c13)C[C@@H](CO)NC(=O)[C@H](C(C)C)N2C)NC(=O)c1ccc(N=[N+]=[N-])cc1`: the ID50 was 89 nM. Same read-out and setting: to `C=C[C@@]1(C)CC[C@](C)(C(C)C)c2cc3c4c(c[nH]c4c21)C[C@@H](CO)NC(=O)[C@H](C(C)C)N3C` belongs 2.23 nM.

In another experiment the target is EGFR (Hamster) (UniProt P00533).
EGFR (Hamster), sequence (P00533 whole entry, looked up): as the sequence (P00533 whole entry, looked up) above
Test: not given
Conditions: not given
Compound `COC(=O)c1cc(N=Cc2ccc(O)cc2O)ccc1O` had an IC50 of more than 100000 nM. Turning to `O=C(O)c1cc(N=Cc2ccccc2O)ccc1O`, the IC50 was more than 100000 nM.

In turn, `COC(=O)c1cc(N=Cc2ccccc2O)ccc1O` showed an IC50 of more than 100000 nM. `O=C(O)c1cccc(N=Cc2cc(O)ccc2O)c1` registered an IC50 of more than 10000 nM.

With `COC(=O)c1cc(N=Cc2cccc(O)c2)ccc1O`, the IC50 was more than 100000 nM.

`COC(=O)c1cc(NCc2cc(OC)ccc2OC)ccc1O`: the IC50 was more than 100000 nM. As for `COC(=O)c1cc(N=Cc2cc(OC)ccc2OC)ccc1O`, the IC50 was more than 10000 nM.

A further experiment addresses MAPK14 (UniProt Q16539).
Test: not given
Conditions: not given
For `Fc1ccc(Oc2cc(-c3c(-c4ccc(F)cc4)ncn3C3CCNCC3)ccn2)cc1`, the inhibition was less than 50 µM. Consider `Fc1ccc(-c2ncn(C3CCNCC3)c2-c2ccnc(Sc3ccccc3)c2)cc1`, for which the inhibition is less than 50 µM. Compound `Cn1nnnc1Sc1cc(-c2c(-c3ccc(F)cc3)ncn2C2CCNCC2)ccn1` yielded an inhibition of less than 50 µM. The compound `Fc1ccc(Oc2nccc(-c3c(-c4ccc(F)cc4)ncn3CCCN3CCOCC3)n2)cc1` gave an inhibition of less than 50 µM. On to `Fc1ccc(-c2ncn(C3CCNCC3)c2-c2ccnc(Oc3ccccc3)c2)cc1`, for which the inhibition is less than 50 µM. For the compound `COc1ccc(Oc2cc(-c3c(-c4ccc(F)cc4)ncn3C3CCNCC3)ccn2)cc1`, the inhibition is less than 50 µM.

For the next experiment, the target named is EGFR (murine) (UniProt P00533).
EGFR (murine), sequence (P00533 whole entry, looked up): as above
Test: not given
The following applies: nih3t3.
In the case of `Oc1ccc(-c2cnc3ccc(NCc4ccccc4)nc3n2)cc1`, the IC50 was more than 50000 nM. The same measure, in the same setting: the same measure for `c1ccc(Nc2ccc3ncc(-c4ccccc4)nc3n2)cc1`: more than 50000 nM; for `COc1ccc2nc(C)c(-c3ccccc3)nc2n1`: more than 100000 nM.

On to `Fc1ccc(CNc2ccc3nc(-c4ccccc4)c(-c4ccccc4)nc3n2)cc1`, for which the IC50 is more than 100000 nM. The same measure, in the same setting: to `Cc1nc2ccc(NCc3ccc(F)cc3)nc2nc1-c1ccccc1` belongs more than 100000 nM; to `COc1ccc2nc(-c3ccccc3)c(-c3ccccc3)nc2n1`, more than 100000 nM.

The target of another experiment is EGFR (UniProt P00533).
Test: not given
Conditions: not given
This is another data set of the same source.
`CN(C)CCCn1nc(C2=C(c3cn(-c4cnc5ccccc5c4)c4ccccc34)C(=O)NC2=O)c2ccccc21` returned an IC50 of more than 10000 nM.

For `CN(C)CCCn1nc(C2=C(c3cn(-c4cccs4)c4ccccc34)C(=O)NC2=O)c2ccccc21`, the IC50 is more than 10000 nM. As to `CN(C)CCCn1nc(C2=C(c3cn(-c4ccc5ccccc5c4)c4ccccc34)C(=O)NC2=O)c2ccccc21`, the IC50 was more than 10000 nM.

Consider `CN(C)CCCn1nc(C2=C(c3cn(-c4cccnc4)c4ccccc34)C(=O)NC2=O)c2ccccc21`, for which the IC50 was more than 10000 nM. As for `CN(C)CCCn1nc(C2=C(c3cn(-c4cccc5ccccc45)c4ccccc34)C(=O)NC2=O)c2ccccc21`, the IC50 was more than 10000 nM. In the case of `CN(C)CCCn1nc(C2=C(c3cn(-c4csc5ccccc45)c4ccccc34)C(=O)NC2=O)c2ccccc21`, the IC50 was more than 10000 nM.

For the next experiment, the target named is EGFR (UniProt P00533).
Test: not given
Conditions: not given
This is another data set of the same source.
The compound `O=C(Nc1ccc(F)cc1)Nc1ncnc2nn3ccccc3c12` gave an IC50 of more than 10000 nM. As to `O=C(Nc1cccc(C(F)(F)F)c1)Nc1ncnc2nn3ccccc3c12`, the IC50 is more than 10000 nM. `O=C(Nc1cccc([N+](=O)[O-])c1)Nc1ncnc2nn3ccccc3c12` returned an IC50 of more than 10000 nM. For the compound `O=C(Nc1ccc(Br)cc1)Nc1ncnc2nn3ccccc3c12`, the IC50 was more than 10000 nM.

Consider `O=C(Nc1ccc(C(F)(F)F)cc1)Nc1ncnc2nn3ccccc3c12`, for which the IC50 is more than 10000 nM. On the same count and under the same terms, the same measure for `N#Cc1cccc(NC(=O)Nc2ncnc3nn4ccccc4c23)c1`: more than 10000 nM.

A further experiment deals with EGFR (UniProt P00533).
Test: not given
Particulars: concentration not given here.
For `NC(=O)c1c(NC(=O)C2CC2)sc2c1CCC(Br)(Br)C2=O`, the inhibition was more than 50%.

On to `NC(=O)c1c(NC(=O)Nc2ccc(F)cc2)sc2c1CCC(=O)C2`, for which the inhibition was more than 50%. As for `NC(=O)c1c(NC(=O)C2CC2)sc2c(O)c(Br)ccc12`, the inhibition is more than 50%. Same read-out and setting: the same measure for `NN=C1CCc2c(sc(NC(=O)C3CC3)c2C(N)=O)C1`: more than 50%. Consider `CC1CC1C(=O)Nc1sc2c(Cl)c(O)ccc2c1C(N)=O` (configuration not stated), for which the inhibition is more than 50%.

A further experiment deals with ROCK2 (human) (UniProt O75116).
Test: not given
Conditions: not given
For the compound `NC(Cc1cccc(Cl)c1)C(=O)Nc1ccc(-c2cn[nH]c2)cc1` (configuration not stated), the IC50 was 2 nM. `COc1ccc2c(c1)CN[C@@H](C(=O)Nc1ccc(-c3cn[nH]c3)cc1OCCN(C)C)C2` showed an IC50 of 261 nM. Take `CCN1Cc2ccc(OC)cc2C[C@@H]1C(=O)Nc1ccc(-c2cn[nH]c2)cc1OCCN(C)C`: the IC50 turned out to be 9 nM.

`COc1ccc2c(c1)C[C@H](C(=O)Nc1ccc(-c3cn[nH]c3)cc1)NC2` had an IC50 of 134 nM. Still for that read-out and setting: to `CCOc1ccc2c(c1)CC(C(=O)Nc1ccc(-c3cn[nH]c3)cc1OCCN(C)C)NC2` (configuration not stated) belongs 850 nM; to `COc1cccc2c1CNC(C(=O)Nc1ccc(-c3cn[nH]c3)cc1OCCN(C)C)C2` (configuration not stated), 334 nM.
